According to patent publication US6489312B1, “Pharmaceutical formulations comprising aminoalkyl phosphorothioates” (MedImmune Oncology, Inc., priority 1999, dated 2002):

Experiments:
[1] = Body weight of irradiated mice as objective indicator of mucositis; assay type: in vivo, C57BL/6 female mice; conditions: for Weight: amifostine 50 mg/ml, 200 mg/Kg s.c. 30 minutes before 16.5 Gy irradiation
Description: (§1) C57BL/6 female mice of 8-10 weeks old were used and fed with semi liquid food. The mice were randomly divided into treatment groups of five mice each. The treatment groups were, for example,
(§2) Unanesthetized mice were maintained in supine position and irradiated exclusively on the tip of their mouth. […] Irradiation was performed with a RT 250 Philips apparatus delivering 1.98 Gy per min. (200 Kv, 20 mA, filter of 0.2 mm de Cu). During irradiation, a constant normobaric air renewal was maintained. The effects of amifostine were evaluated using a single dose of 16.5 Gy.
(§3) Amifostine was dissolved in appropriate diluent to achieve a final concentration of 50 mg/ml immediately before injections. Amifostine was dissolved in 0.075% sodium deoxycholate to achieve a final concentration of 50 mg/ml. Amifostine was dissolved in a mixture of 2% EDTA and 2% sorbitol to achieve a final concentration of 50 mg/ml. Amifostine was dissolved in 0.2% EDTA to achieve a final concentration of 50 mg/ml. Subcutaneous injections (200 mg/Kg) were conducted 30 minutes before irradiation. Where a control group was used, a first control group was injected with the saline solution and subsequently irradiated, and a second control group was injected with the saline solution, but was not irradiated.
(§4) The effects of irradiation on lip mucosa were evaluated using the scoring system described by Parkins et al. (1983, Radiother. Oncol. 1:159-165). Body weight of the treated mice were scored periodically after treatment. Reduction in body weight was used as an objective indication of the severity of mucositis induced by irradiation, presumably resulting from the inability of the animals to eat. In this model, the acute reactions peaked on day 10 to 11 after irradiation.
(§5) These examples describe pharmaceutical formulations of the invention comprising amifostine in combination with surfactants and/or hydrotropes and/or chelating agents. The pharmaceutical formulations were administered, and the effects of irradiation on lip mucosa evaluated using the methods described in the first Example above.

[2] = test system: radiation-induced mucositis; experiment: Radiation-induced mucositis in the lip of irradiated mice, total mucositis score (erythema + edema, Parkins scoring); assay type: in vivo, C57BL/6 female mice; parameters: key to Total Mucositis Score After 11 days: combined erythema + edema score (Parkins), maximum 7; conditions: for Score (total mucositis score): amifostine 50 mg/ml, 200 mg/Kg s.c. 30 minutes before 16.5 Gy irradiation, maximum score 7
From the text: One of the major limiting acute toxicities associated with radiotherapy is radiation-induced mucositis. The ability to reduce the duration and severity of acute mucosal reactions is of particular importance in the radiotherapy and/or chemotherapy of head and neck cancer. Therefore, the radioprotective effects of amifostine were examined in an experimental model of mucositis. In particular, the study compared the radioprotective effects of amifostine by subcutaneous (s.c.) and intraperitoneal (i.p.) administration.
as §1, §2, §3, §4
Other symptoms of mucositis such as mucosal erythema and edema were also recorded. These symptoms developed more slowly than weight loss following irradiation. Mucosal erythema and edema were scored separately, and could be analyzed as separate scores or as a combined score yielding a maximum score of 7. Mouse lip mucosal erythema was scored according to Table 1.
Mucosal edema (swelling) of the lips was scored according to table 2.
as §5

| Compound | Weight ([1]; Day 0) | Weight ([1]; Day 6) | Weight ([1]; Day 10) | Weight ([1]; Day 11) | Weight ([1]; Day 12) | Weight ([1]; Day 18) | Weight ([1]; Day 28) | Effect on body weight reduction after irradiation (in words) ([1]; s.c. administration before irradiation, compared with other groups) | Score (total mucositis score) ([2]; Day 0) | Score (total mucositis score) ([2]; Day 6) | Score (total mucositis score) ([2]; Day 10) | Score (total mucositis score) ([2]; Day 11) | Score (total mucositis score) ([2]; Day 12) | Score (total mucositis score) ([2]; Day 18) | Score (total mucositis score) ([2]; Day 28) | % Weight Change After 6 Days ([1]; after 6 days, irradiated mice, methods of Example 1) | Total Mucositis Score After 11 days ([2]; after 11 days, irradiated mice, methods of Example 1) |
| --- | --- | --- | --- | --- | --- | --- | --- | --- | --- | --- | --- | --- | --- | --- | --- | --- | --- |
| NCCCNCCSP(=O)(O)O [Amifostine, S-2-(3-aminopropylamino)ethyl dihydrogen phosphorothioate] | 16.4 g | 15.8 g | 17.4 g | 17.8 g | 17.6 g | 18.4 g | 19.5 g | Less severe reductions in body weight | 0.0 | 0.5 | 1.7 | 1.8 | 1.3 | 0.4 | 0.0 |  |  |
| NCCCNCCS [WR-1065, S-2-(3-aminopropylamino)ethanethiol] |  |  |  |  |  |  |  |  |  |  |  |  |  |  |  | −8.7% | 5.1 |
